Results as given in PMC10606064, “2-Aminothiazole-Flavonoid Hybrid Derivatives Binding to Tau Protein and Responsible for Antitumor Activity in Glioblastoma” (International Journal of Molecular Sciences, 2023).
Read-outs that look alike come from different tables or passages of the source.

What was measured:
[1] = test system: GBM cells (U87, U251, U138, and T98G); test: MTT assay across the Tau-expressing GBM cell models; assay type: cell-based, human
Procedure: (§1) Cells harvested from sub-confluent monolayers were seeded at 15,000 cells per mL in a 96-well microtiter plate (Cambridge Technology, Labège, France) and cultured for 24 h under standard conditions. Standard medium was then replaced by fresh medium containing no drugs or compounds at different concentrations. The surviving cells were quantified after 72 h by the MTT assay, according to the manufacturer’s instructions. Briefly, 20 µL of 3-(4,5-diMethylThiazol-2-yl)-2,5diphenyl Tetrazolium bromide (MTT) solution at 5 mg.mL^−1 was added to cells for 3 h at 37 °C. The supernatant was discarded and replaced by 100 µL of dimethyl sulfoxide to dissolve formazan crystals. The absorbance was then read at 600 nm by spectrophotometry. For all concentrations of a given compound, cell viability was expressed as the percentage of the ratio between the mean absorbance of treated cells and the mean absorbance of untreated cells. Three independent experiments were performed, and the data were expressed as percentage of survival (using the untreated cells as 100%) and subjected to statistical analysis (n = 3). The IC50 was calculated using the Chou and Talalay method.

[2] = molecular target: T1, Tau protein (full-length human Tau, hTau40) (Homo sapiens, UniProt P10636); test: Tau intrinsic fluorescence quenching, modified Stern–Volmer binding parameters; settings: 5 µM Tau, buffer B pH 6.8, mean ± SD; for Kd: read-out: Equilibrium Binding Constants to Tau, KD
T1 construct: The full-length human Tau (hTau40) was expressed in a transformed E. coli BL21 (DE3) strain; made in house; host or cells: E. coli BL21 (DE3)
Procedure: Fluorescence measurements were performed with a Horiba Jobin Yvon FluoroMax-3 spectrofluorometer. […] For experiments, the excitation wavelength was fixed at 275 nm, and the emission spectra were recorded between 280 nm and 500 nm at room temperature. The inner filter effects were corrected according to Lakowicz as follows:F = Fobs × exp{(Aem + Aex)/2}(2) where Fobs and F are the observed and corrected fluorescence values at the emission wavelength of 303 nm. Aex and Aem are the absorptions at the excitation and emission wavelengths, respectively, calculated with A = ε.l.C, in which ε is the extinction coefficient of Tau, l is the path length of cuvette, and C is Tau concentration.
The total fluorescence in the absence of quencher (F0) is given by:F0 = F0a + F0b(4) where 0 refers to the fluorescence intensity in the absence of quencher.
In the presence of quencher, we defined fa as the fraction of the initial fluorescence of Tau accessible to compounds:fa = F0a/(F0a + F0b)(5)
Therefore, the intensity of the accessible fraction (fa) is decreased according to the Stern–Volmer equation, whereas the buried fraction is not quenched, as given by:F = {F0a/(1 + K.[Q])} + F0b(6)
Then, subtraction of Equations (6) and (4) yields:ΔF = F0 − F = F0a × {K.[Q]/(1 + K.[Q])}(7)
At last, inversion of Equation (7) followed by division into Equation (4) yields:F0/ΔF = {1/(fa.K.[Q])} + 1/fa(8)
We applied this modified form of the Stern–Volmer equation to graphically determine the values of fa and K. For our experiments, we plotted F0/ΔF against 1/[Q], then we determined the fa value at the point of intersection with the y-axis, while the slope represented (faK)^−1.

U87 glioblastoma cells = test: MTT cell viability assay, U87; assay type: cell-based, human; settings: Homo sapiens; U87, 72 h, MTT; mean ± SEM; read-out: IC50 (metabolic activity)
Procedure: as §1

mature Tau aggregates = molecular target: T2, mature Tau aggregates (Homo sapiens, UniProt P10636); test: Dissolution of preformed (mature) Tau aggregates, ThS fluorescence; assay type: biochemical; settings: 10, 30 and 100 µM added to ThS-labelled aggregates after 8 h, 37 °C
T2 construct: The full-length human Tau (hTau40) was expressed in a transformed E. coli BL21 (DE3) strain; made in house; host or cells: E. coli BL21 (DE3)
Procedure: Moreover, we performed a qualitative study of the ability of QCT and compounds 1, 5, and 9 to dissolve preformed Tau aggregates (Figure 3).
Eight-hour time courses were performed with ThS to monitor heparin-induced Tau aggregation by spectrofluorometry at 520 nm (37 °C), then 10, 30, and 100 µM of compounds (curves b–d) were added to the ThS-labelled Tau aggregates. A control was performed without compound (curve a).

[3] = molecular target: T3, full-length human Tau (hTau40) (Homo sapiens, UniProt P10636); test: Tau oligomerization inhibition assay (heparin-induced, thioflavin S fluorescence); assay type: biochemical
T3 construct: The full-length human Tau (hTau40) was expressed in a transformed E. coli BL21 (DE3) strain; made in house; host or cells: E. coli BL21 (DE3)
Procedure: Tau oligomerization inhibition assay was performed at 37 °C in 96-well plates by monitoring thioflavin-S fluorescence at 520 nm after excitation at 440 nm using a microplate reader (POLARstar Omega system, BMG Labtech, Paris, France). The Tau oligomerization process was induced by heparin. […] The plates were shaken at 200 rpm for 10 s before each measurement. The real value of fluorescence at the plateau was determined using SciDAVis v1.23 software. Data were fitted to the SciDAVis built-in ExpGrowth equation by means of nonlinear least-squares regression analysis. Y = Y0 + A × exp(x/t)(1)
The unscaled Levenberg–Marquardt algorithm was used, and initial values were given to Y0, A, and t. The final Y0 value of the model corresponds to the plateau value. The plateau values were then used to calculate the Tau oligomerization inhibition percentage. The IC50 for each compound was calculated from the scatter plot of Tau oligomerization inhibition (in percentage) as a function of log10 of compound concentration. The IC50 value (in µM) thus corresponds to ten raised to the power of […].

U251 glioblastoma cells = test: MTT cell viability assay, U251; assay type: cell-based; settings: Homo sapiens, U-251, U251, 72 h, mean ± SEM, read-out: IC50 (metabolic activity)
Procedure: as §1

T98G glioblastoma cells = test: MTT cell viability assay, T98G; assay type: cell-based; settings: Homo sapiens, 72 h, mean ± SEM, read-out: IC50 (metabolic activity)
Procedure: as §1

[4] = test system: Caco-2 colon adenocarcinoma cells; test: MTT cell viability assay, Caco-2; assay type: cell-based; settings: Homo sapiens, Caco-2 (not expressing Tau), 72 h, mean ± SEM, read-out: IC50 (metabolic activity)
Procedure: as §1

U138 glioblastoma cells = test: MTT cell viability assay, U138; assay type: cell-based; settings: Homo sapiens, U138, 72 h, mean ± SEM, read-out: IC50 (metabolic activity)
Procedure: as §1

U87 shTau cells [5] = test: Cell cycle by flow cytometry (propidium iodide), U87 shTau; assay type: cell-based, human; settings: 48 h, compounds 10 µM, NOC 1 µM
Procedure: (§2) Measurements of cell cycle from DNA content were performed by flow cytometry as described before. Briefly, 4.10^5 cells in exponential growth were seeded in 6-well plates. After 24 h, they were treated with 10 µM of compounds for 48 h. Nocodazole was used as a positive control with a concentration of 1 µM. The trypsinized cells were harvested and then centrifuged (1200 rpm, 5 min, at room temperature). The cell pellet was resuspended in 1 mL of PBS 1× at 4 °C, and then an extra 4 mL of cold PBS was added to wash the pellet. Cells were then centrifuged again (1200 rpm, 5 min, at 4 °C). To fixate the cells, the pellet was resuspended in 100 µL of cold 70% ethanol, then an additional 900 µL was added and cells were incubated for 30 min at −20 °C. After that, 9 mL of cold PBS was added, and cells were centrifuged (2000 rpm, 5 min, at 4 °C) to remove ethanol. The cell pellet was then resuspended in the staining mix containing 50 µg.mL^−1 of propidium iodide (Molecular Probes, Paris, France) and 100 µg.mL^−1 of RNAse A (Sigma-Aldrich, Saint-Quentin-Fallavier, France) in PBS for 20 min at room temperature in darkness. Samples were analyzed on a Beckman–Coulter–Gallios flow cytometer using the Kaluza for Gallios Acquisition v1.0 software. Propidium iodide was excited at 488 nm, and fluorescence was analyzed at 620 nm on channel FL-3. For the analysis, there is considerable overlap between early S phase and G1 and between late S phase and G2/M due to broadening of the distribution caused by variability in the staining of the cells and instrumental variability. Therefore, the percentages of cells in the sub-G1, G1, S, and G2/M phases of the cell cycle were calculated using the Watson et al. algorithm for cell cycle analysis in Kaluza for Gallios Analysis v2.1 software. The software automatically adjusted gates based on PI median fluorescence intensity of the cells and their frequency among total cells. The number of cells in each phase was divided by the total number of analyzed cells, and the values were reported as percentage of the total cells for each cell cycle phase.

U87 shTau cells [6] = test: Mitotic index by high-content imaging, U87 shTau; assay type: cell-based, human; settings: 48 h, 5-times IC50 of compounds
Procedure: (§3) For scoring mitotic indexes, an automated high-content screening confocal microscopy approach was employed to identify cells undergoing mitosis from a large population of cells. For this, cells nuclei were stained with DAPI. Briefly, fibronectin-coated clear-glass-bottom black 96-well imaging plates were seeded with 100 µL of cell suspension (60,000 cell.mL^−1) in each well, with both U87 shCTRL and U87 ShTau cell lines. Cells were treated with 5-times IC50 of compounds for 48 h, then they were fixated inside the palates with 4% formaldehyde (in PBS pH 7.4) for 20 min at room temperature, permeabilized with PBS-Triton X-100 0.5% for 10 min at room temperature. DNA was then stained with DAPI (10 µg.mL^−1) for 5 min at room temperature and in the darkness. After being washed, cells were kept in PBS at 4 °C and imaged while in PBS. Automated confocal microscopy was carried out using an Opera Phenix (PerkinElmer) high-content screening microscope using a 20× Air/0.4 NA air objective. For each condition, 6 wells were prepared and a total of 61 fields were acquired for each well. Image analysis was performed using Harmony high-content analysis v4.8 software and PhenoLOGIC Machine Learning technology, which uses a learn-by-example approach. As a first step, nuclei were segmented and multiple parameters for these nuclei were calculated using Harmony v4.8 software building blocks. After training, PhenoLOGIC Machine Learning then selects the best parameters to detect nuclei undergoing the M phase of mitosis. From this, the mitotic index of each condition was calculated by dividing the number of cells undergoing mitosis over the total number of cells.

U87 shCTRL cells [7] = test: Mitotic index by high-content imaging, U87 shCTRL; assay type: cell-based, human; settings: 48 h, 5-times IC50 of compounds
Procedure: as §3

U87 shCTRL cells [8] = test: Cell cycle by flow cytometry (propidium iodide), U87 shCTRL; assay type: cell-based, human; settings: 48 h, compounds 10 µM, NOC 1 µM
Procedure: as §2

R3 peptide = test system: R3 peptide; set-up: method as in PMID 34743390; settings: 10 µM, AFM analysis; cited from earlier work
[9] = 2 µM Tau, heparin-induced, ThS, buffer A pH 6.9, 25 °C per table footnote (37 °C in method), mean ± SD, read-out: Inhibition of Aggregation IC50

T1 sequence (P10636 1-441 isoform P10636-8): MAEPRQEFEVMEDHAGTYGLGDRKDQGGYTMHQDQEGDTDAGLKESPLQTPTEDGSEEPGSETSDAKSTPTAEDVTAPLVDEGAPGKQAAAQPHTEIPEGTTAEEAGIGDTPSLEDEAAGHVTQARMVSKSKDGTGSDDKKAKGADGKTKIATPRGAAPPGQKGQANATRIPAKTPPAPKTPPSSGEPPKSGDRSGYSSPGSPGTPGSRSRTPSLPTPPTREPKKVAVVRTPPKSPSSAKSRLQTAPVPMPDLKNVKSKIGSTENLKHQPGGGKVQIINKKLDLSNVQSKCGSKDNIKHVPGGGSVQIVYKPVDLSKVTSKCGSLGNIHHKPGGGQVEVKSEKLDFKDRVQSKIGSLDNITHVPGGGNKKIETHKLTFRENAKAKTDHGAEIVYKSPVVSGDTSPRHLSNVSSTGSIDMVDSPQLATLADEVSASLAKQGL
T3 sequence (P10636 1-441 isoform P10636-8): as above
T2 sequence (P10636 1-441 isoform P10636-8): as above

Row | Structure (SMILES) | IC50 ([1]; Homo sapiens, U87, U251, U138, T98G, 72 h MTT, read-out: IC50 among the Tau-expressing GBM cell models) | Equilibrium Binding Constants to Tau, fA (Tyr accessible fraction) [2] | Kd [2] | IC50 (U87 glioblastoma cells) | Ability to dissolve mature (preformed) Tau aggregates (mature Tau aggregates) | IC50 [3, 9] | IC50 (U251 glioblastoma cells) | IC50 (T98G glioblastoma cells) | IC50 [4] | IC50 (U138 glioblastoma cells) | efficacy fold higher than 13 and 15 ([1]; GBM cells) | %G1 (cells in G1 phase) (U87 shTau cells [5]) | %G2/M (cells in G2/M phase) (U87 shTau cells [5]) | mitotic index (U87 shTau cells [6]) | mitotic index (U87 shCTRL cells [7]) | %G1 (cells in G1 phase) (U87 shCTRL cells [8]) | %G2/M (cells in G2/M phase) (U87 shCTRL cells [8]) | IC50 [3] | R3 peptide fibrillation (R3 peptide)
1 | Nc1nc(-c2ccc3oc(-c4ccccc4)cc(=O)c3c2)cs1 [Compound 1] | 4.2 to 22.4 µM | 0.39 ± 0.08 | 7 ± 2.3 µM | 22.4 ± 5.2 µM | able to dissolve mature Tau aggregates | 92 ± 9.6 µM | 6.7 ± 2.2 µM | 4.2 ± 0.7 µM | 33.2 ± 13.3 µM | 6.4 ± 1.3 µM |  |  |  |  |  |  |  |  | 
2 | COc1c(-c2cccc(F)c2)oc2ccc3nc(N)sc3c2c1=O [Compound 14] |  | 0.21 ± 0.04 | 4.2 ± 0.3 µM | 1.1 ± 0.2 µM |  | 11.7 ± 2 µM | 1.3 ± 0.5 µM | 2.7 ± 0.5 µM |  | 1.4 ± 0.2 µM | up to 6 fold |  |  |  |  |  |  |  | 
3 | COC(=O)Nc1nc2ccc(C(=O)c3cccs3)cc2[nH]1 [NOC, nocodazole, reference compound] |  |  |  |  |  |  |  |  |  |  |  | 9 ± 7% | 77 ± 4% | 23.0 ± 4.01% | 9.38 ± 3.55% | 10 ± 3% | 82 ± 6% |  | 
4 | O=c1c(O)c(-c2ccc(O)c(O)c2)oc2cc(O)cc(O)c12 [QCT, quercetin, reference compound] |  | 0.12 ± 0.04 | 2.4 ± 0.6 µM | > 100 µM | able to dissolve mature Tau aggregates |  | > 100 µM | > 100 µM | > 100 µM | > 100 µM |  |  |  |  |  |  |  | 17.3 ± 0.6 µM | abrogated R3 peptide fibrillation
